Measured values as given in paper PMC5622368, “Redundancy between nucleases required for homologous recombination promotes PARP inhibitor resistance in the eukaryotic model organism Dictyostelium” (Nucleic Acids Research, 2017).

Biological target: T1, Adprt2 (Dictyostelium discoideum, UniProt Q8I7C6)
T1 construct: recombinant His-tagged, expressed and purified from bacteria
T1 sequence (Q8I7C6 1-700): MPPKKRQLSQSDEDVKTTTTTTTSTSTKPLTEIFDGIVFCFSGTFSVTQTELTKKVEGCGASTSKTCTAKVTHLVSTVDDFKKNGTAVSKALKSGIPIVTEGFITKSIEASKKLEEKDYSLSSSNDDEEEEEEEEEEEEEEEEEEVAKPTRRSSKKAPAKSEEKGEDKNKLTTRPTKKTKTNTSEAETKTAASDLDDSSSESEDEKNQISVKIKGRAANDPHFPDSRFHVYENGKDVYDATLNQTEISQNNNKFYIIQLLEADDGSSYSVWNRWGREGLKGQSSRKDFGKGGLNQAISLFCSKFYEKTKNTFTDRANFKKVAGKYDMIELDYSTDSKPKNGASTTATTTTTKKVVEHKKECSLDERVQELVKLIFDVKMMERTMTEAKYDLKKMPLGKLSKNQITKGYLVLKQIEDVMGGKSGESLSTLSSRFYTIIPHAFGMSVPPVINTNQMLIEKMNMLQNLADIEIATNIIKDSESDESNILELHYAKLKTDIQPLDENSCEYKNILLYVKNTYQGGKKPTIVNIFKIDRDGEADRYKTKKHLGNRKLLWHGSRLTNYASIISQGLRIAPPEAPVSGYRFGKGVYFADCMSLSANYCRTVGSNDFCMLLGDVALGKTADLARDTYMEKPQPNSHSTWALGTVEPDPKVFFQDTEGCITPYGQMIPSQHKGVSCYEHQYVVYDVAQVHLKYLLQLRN
Test: auto-ADP-ribosylation, […]-NAD+, SDS-PAGE and phosphorimager
Assay type: biochemical
Conditions: room temperature

[1] = 75 uM NAD+, 100 nM 32P-NAD+, 1 uM enzyme, Tris-HCl pH 8, 2 mM MgCl2, sheared salmon sperm DNA, 30 min

For NC(=O)c1ccc[n+]([C@@H]2O[C@H](COP(=O)(O)OP(=O)(O)OC[C@H]3O[C@@H](n4cnc5c(N)ncnc54)[C@H](O)[C@@H]3O)[C@@H](O)[C@H]2O)c1 [NAD+], the “auto-ADP-ribosylation, 32P-NAD+, SDS-PAGE and phosphorimager” value (“auto-ADP-ribosylation, 32P-NAD+” for short) (75 uM NAD+ plus 100 nM 32P-NAD+ (labelled compound), pH 8, 2 mM MgCl2, sheared salmon sperm DNA) was “ADP-ribosylated species that co-migrates with recombinant Adprt1a or Adprt2 in our assays”.

In the case of Cc1nc2c(O)cccc2c(=O)[nH]1 [NU1025], the “auto-ADP-ribosylation, 32P-NAD+” value [1] is reported as “these agents inhibit auto-ribosylation of the SSB-responsive ART Adprt2”.

With O=C(c1cc(Cc2n[nH]c(=O)c3ccccc23)ccc1F)N1CCN(C(=O)C2CC2)CC1 [olaparib] the “auto-ADP-ribosylation, 32P-NAD+” value [1] was “olaparib and rucaparib are more effective at inhibiting Adprt1a than Adprt2”.

With CNCc1ccc(-c2[nH]c3cc(F)cc4c3c2CCNC4=O)cc1 [rucaparib] the “auto-ADP-ribosylation, 32P-NAD+” value [1] was “olaparib and rucaparib are more effective at inhibiting Adprt1a than Adprt2”.
